Patent publication US20150258101A1 (Proximagen Limited, priority 2014, published 2015)

Each compound was assayed against T1, purified recombinantly expressed human SSAO (Homo sapiens, UniProt Q16853) (assay: SSAO enzyme inhibition assay (benzylamine substrate; hydrogen peroxide/HRP-coupled or 14C aldehyde detection)). Conditions: SSAO inhibitory activity, RT.
T1 construct: made in house
T1 sequence (Q16853 1-763): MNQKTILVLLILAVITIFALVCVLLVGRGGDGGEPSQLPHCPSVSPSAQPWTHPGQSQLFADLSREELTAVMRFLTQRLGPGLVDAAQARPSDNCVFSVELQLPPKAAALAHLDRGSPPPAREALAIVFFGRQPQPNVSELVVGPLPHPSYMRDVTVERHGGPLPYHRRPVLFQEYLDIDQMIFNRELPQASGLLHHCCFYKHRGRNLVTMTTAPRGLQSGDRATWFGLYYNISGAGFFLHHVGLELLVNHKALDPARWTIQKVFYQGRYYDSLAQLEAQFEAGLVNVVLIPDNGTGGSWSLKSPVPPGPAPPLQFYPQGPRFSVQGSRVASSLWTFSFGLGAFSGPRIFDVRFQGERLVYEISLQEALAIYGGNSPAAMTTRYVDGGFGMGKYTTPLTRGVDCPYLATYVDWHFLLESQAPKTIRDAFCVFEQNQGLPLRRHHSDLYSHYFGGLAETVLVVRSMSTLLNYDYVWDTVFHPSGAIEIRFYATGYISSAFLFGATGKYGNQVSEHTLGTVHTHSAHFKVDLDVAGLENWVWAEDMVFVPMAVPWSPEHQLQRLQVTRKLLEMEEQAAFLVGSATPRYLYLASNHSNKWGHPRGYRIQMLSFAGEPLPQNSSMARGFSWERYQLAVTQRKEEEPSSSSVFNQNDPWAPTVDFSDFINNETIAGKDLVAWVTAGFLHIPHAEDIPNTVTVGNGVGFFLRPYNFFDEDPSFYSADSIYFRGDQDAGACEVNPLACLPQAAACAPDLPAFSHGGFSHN
Type: biochemical
Protocol: All primary assays were performed at RT. with purified recombinantly expressed human SSAO. Enzyme was prepared essentially as described in Öhman et al. (Protein Expression and Purification 46 (2006) 321-331). In addition, secondary- and selectivity assays were performed using SSAO prepared from various tissues or purified rat recombinant SSAO. The enzyme activity was assayed with benzylamine as substrate by measuring either benzaldehyde production, using ^14C-labeled substrate, or by utilizing the production of hydrogen peroxide in a horseradish peroxidase (HRP) coupled reaction. Briefly, test compounds were dissolved in dimethyl sulfoxide (DMSO) to a concentration of 10 mM. Dose-response measurements were assayed by either creating 1:10 serial dilutions in DMSO to produce a 7 point curve or by making 1:3 serial dilutions in DMSO to produce 11 point curves.
In a horseradish peroxidase (HRP) coupled reaction, hydrogen peroxide oxidation of 10-acetyl-3,7-dihydroxyphenoxazine produced resorufin, which is a highly fluorescent compound (Zhout and Panchuk-Voloshina. Analytical Biochemistry 253 (1997) 169-174; Amplex® Red Hydrogen Peroxide/peroxidase Assay kit, Invitrogen A22188). Enzyme and compounds in 50 mM sodium phosphate, pH 7.4 were set to pre-incubate in flat-bottomed microtiter plates for approximately 15 min before initiating the reaction by addition of a mixture of HRP, benzylamine and Amplex reagent. Benzylamine concentration was fixed at a concentration corresponding to the Michaelis constant, determined using standard procedures. Fluorescence intensity was then measured at several time points during 1-2 h, exciting at 544 nm and reading the emission at 590 nm. For the human SSAO assay final concentrations of the reagents in the assay wells were: SSAO enzyme 1 ug/ml, benzylamine 100 uM, Amplex reagent 20 uM, HRP 0.1 U/mL and varying concentrations of test compound. The inhibition was measured as % decrease of the signal compared to a control without inhibitor (only diluted DMSO). The background signal from a sample containing no SSAO enzyme was subtracted from all data points. Data was fitted to a four parameter logistic model and IC50 values were calculated using the Graph Pad Prism 4 or XLfit 4 programs.
SSAO activity was assayed using 14C-labeled benzylamine and analysed by measuring radioactive benzaldehyde. In a white 96-well optiplate (Packard), 20 uL of diluted test compound was pre-incubated at room temperature with 20 uL SSAO enzyme for approximately 15 min with continuous agitation. All dilutions were made with PBS. The reaction was initiated by adding 20 uL of the benzylamine substrate solution containing [7-14C] Benzylamine hydrochloride (CFA589, GE Healthcare). The plate was incubated for 1 h as above after which the reaction was stopped by acidification (10 uL 1M aq HCl). Then 90 uL Micro Scint-E solution (Perkin-Elmer) was added to each well and the plate was continuously mixed for 15 min. Phase separation occurred instantly and activity was read in a Topcount scintillation counter (Perkin-Elmer). In the final reaction well, the human recombinant SSAO concentration was 10 ug/ml. In order to optimize sensitivity, the substrate concentration was decreased as compared to the HRP coupled assay in order to get a higher fraction of radioactive product. In the human SSAO assay, benzylamine concentration was 40 uM (0.2 uCi/mL). Data was analysed as above.

Question: For CN(C)c1ncc(-c2cc3ccncc3n2-c2ccc(Cl)cc2)cn1 [Example 137, 5-[1-(4-Chlorophenyl)-1H-pyrrolo[2,3-c]pyridin-2-yl]-N,N-dimethylpyrimidin-2-amine; bis(trifluoroacetic acid)], which IC50 is on record?
Answer: Its IC50 is < 50 nM.

Question: With Brc1ccc(-n2c(-c3cnc(N4CCOCC4)nc3)nc3ccncc32)cc1 [Example 59, 4-{5-[3-(4-Bromophenyl)-3H-imidazo[4,5-c]pyridin-2-yl]pyrimidin-2-yl}morpholine] as the compound, how does the IC50 read?
Answer: Its IC50 is 50 to 200 nM.

Question: With Cc1cc(F)ccc1-n1c(-c2ccc(N3CCOCC3)nc2)nc2ccncc21 [Example 62, 4-{5-[3-(4-Fluoro-2-methylphenyl)-3H-imidazo[4,5-c]pyridin-2-yl]pyridin-2-yl}morpholine] as the compound, how does the IC50 read?
Answer: The IC50 was 50 to 200 nM.

Question: How did the IC50 turn out when CN1CCN(c2ccc(-c3nc4ccncc4n3-c3ccc(F)cc3)cn2)CC1=O [Example 106, 4-{5-[3-(4-Fluorophenyl)-3H-imidazo[4,5-c]pyridin-2-yl]pyridin-2-yl}-1-methylpiperazin-2-one] was run?
Answer: Its IC50 is 50 to 200 nM.

Question: For Cc1cc(F)ccc1-n1c(-c2cnc(N3CCOCC3)nc2)nc2ccncc21 [Example 55, 4-{5-[3-(4-Fluoro-2-methylphenyl)-3H-imidazo[4,5-c]pyridin-2-yl]pyrimidin-2-yl}morpholine], which IC50 is on record?
Answer: The IC50 was < 50 nM.

Question: With Cc1cc(NC2CCOCC2)ncc1-c1nc2ccncc2n1-c1ccc(F)cc1 [Example 100, 5-[3-(4-Fluorophenyl)-3H-imidazo[4,5-c]pyridin-2-yl]-4-methyl-N-(oxan-4-yl)pyridin-2-amine] as the compound, how does the IC50 read?
Answer: Its IC50 is 200 to 1200 nM.

Question: Which IC50 does the source give for CCn1ccc(-c2cc3ccncc3n2-c2ccc(Cl)cc2)cc1=O [Example 144, 4-[1-(4-Chlorophenyl)-1H-pyrrolo[2,3-c]pyridin-2-yl]-1-ethyl-1,2-dihydropyridin-2-one] here?
Answer: Its IC50 is 50 to 200 nM.

Question: For Clc1ccc(-n2c(-c3ccc(CN4CCOCC4)cc3)nc3ccncc32)cc1 [Example 49, 4-({4-[3-(4-Chlorophenyl)-3H-imidazo[4,5-c]pyridin-2-yl]phenyl}methyl)morpholine], which IC50 is on record?
Answer: The IC50 was < 50 nM.

Question: How did the IC50 turn out when Cc1nc(C)c(-c2cc3ccncc3n2-c2ccc(Cl)cc2)[nH]1 [Example 126, 5-[1-(4-Chlorophenyl)-1H-pyrrolo[2,3-c]pyridin-2-yl]-2,4-dimethyl-1H-imidazole] was run?
Answer: Its IC50 is < 50 nM.

Question: Fc1ccc(-n2c(-c3ccc(OC4CCOCC4)nc3)nc3ccncc32)cc1 [Example 113, 5-[3-(4-Fluorophenyl)-3H-imidazo[4,5-c]pyridin-2-yl]-2-(oxan-4-yloxy)pyridine] was tested. Which IC50 did it give?
Answer: Its IC50 is < 50 nM.

Question: With O=c1cc(N2CCOCC2)[nH]cc1-c1nc2ccncc2n1-c1ccc(F)cc1 [Example 99, 5-[3-(4-Fluorophenyl)-3H-imidazo[4,5-c]pyridin-2-yl]-2-(morpholin-4-yl)-1,4-dihydropyridin-4-one] as the compound, how does the IC50 read?
Answer: The IC50 was < 50 nM.

Question: Which IC50 does the source give for Cc1cc(N)ncc1-c1cc2ccncc2n1-c1ccc(Cl)cc1 [Example 141, 5-[1-(4-Chlorophenyl)-1H-pyrrolo[2,3-c]pyridin-2-yl]-4-methylpyridin-2-amine; bis(trifluoroacetic acid)] here?
Answer: Its IC50 is 50 to 200 nM.

Question: Which IC50 does the source give for Clc1ccc(-n2c(-c3cnc[nH]3)nc3ccncc32)cc1 [Example 44, 5-[3-(4-Chlorophenyl)-3H-imidazo[4,5-c]pyridin-2-yl]-1H-imidazole] here?
Answer: The IC50 was 200 to 1200 nM.

Question: With Fc1ccc(-n2c(-c3cnc(N4CCOCC4)nc3)nc3ccncc32)nc1 [Example 76, 4-{5-[3-(5-Fluoropyridin-2-yl)-3H-imidazo[4,5-c]pyridin-2-yl]pyrimidin-2-yl}morpholine] as the compound, how does the IC50 read?
Answer: Its IC50 is 50 to 200 nM.

Question: With Fc1cc(Cl)ccc1-n1c(-c2cnc(N3CCCC3)nc2)nc2ccncc21 [Example 83, 5-[3-(4-Chloro-2-fluorophenyl)-3H-imidazo[4,5-c]pyridin-2-yl]-2-(pyrrolidin-1-yl)pyrimidine] as the compound, how does the IC50 read?
Answer: The IC50 was < 50 nM.

Question: Which IC50 does the source give for O=c1cc(-c2nc3ccncc3n2-c2ccc(Cl)cc2F)ccn1C1CC1 [Example 116, 4-[3-(4-Chloro-2-fluorophenyl)-3H-imidazo[4,5-c]pyridin-2-yl]-1-cyclopropyl-1,2-dihydropyridin-2-one] here?
Answer: The IC50 was 50 to 200 nM.
